Key:
[1] = human gut metagenome, 24 h, 2 µM
[2] = human gut metagenome, 24 h, 2 µM; remark: listed apart in the source
[3] = (§1) The drug is tested on WLS-170 corresponding to human gut metagenome with ENA study accession number: PRJEB37062 and ENA sample accession number: ERS12561762 for biotransformation under anaerobic condition. The drug concentrations were measured over 9 timepoints collected between 0 and 24 hours of incubation by liquid-chromatography-coupled mass spectrometry (LC–MS); settings: 2 µM
[4] = human gut metagenome, 24 h, 2 µM; remark: listed apart in the source
[5] = human gut metagenome, 24 h, 2 µM; remark: listed apart in the source
[6] = as §1, with “WLS-077” for “WLS-170”, “ERS12561750” for “ERS12561762”; settings: 2 µM
[7] = human gut metagenome, 24 h, 2 µM; remark: listed apart in the source
[8] = as §1, with “WLS-240” for “WLS-170”, “ERS12561773” for “ERS12561762”; settings: 2 µM
[9] = human gut metagenome, 24 h, 2 µM; remark: listed apart in the source
[10] = human gut metagenome, 24 h, 2 µM; remark: listed apart in the source
[11] = as §1, with “WLS-052” for “WLS-170”, “ERS12561747” for “ERS12561762”; settings: 2 µM
[12] = as §1, with “WLS-220” for “WLS-170”, “ERS12561769” for “ERS12561762”; settings: 2 µM
[13] = human gut metagenome, 24 h, 2 µM; remark: listed apart in the source
[14] = human gut metagenome, 24 h, 2 µM; remark: listed apart in the source
[15] = human gut metagenome, 24 h, 2 µM; remark: listed apart in the source
[16] = as §1, with “Z-028” for “WLS-170”, “mouse” for “human”, “ERS12561827” for “ERS12561762”; settings: 2 µM
[17] = as §1, with “Z-022” for “WLS-170”, “mouse” for “human”, “ERS12561821” for “ERS12561762”; settings: 2 µM
[18] = as §1, with “Z-029” for “WLS-170”, “rat” for “human”, “ERS12561828” for “ERS12561762”; settings: 2 µM
[19] = as §1, with “Z-007” for “WLS-170”, “rat” for “human”, “ERS12561807” for “ERS12561762”; settings: 2 µM
Also: call rule not given here.

Bacterial Biotransformation [1] | Bacterial Biotransformation [2] | Bacterial Biotransformation [3] | Bacterial Biotransformation [4] | Bacterial Biotransformation [5] | Bacterial Biotransformation [6] | Bacterial Biotransformation [7] | Bacterial Biotransformation [8] | Bacterial Biotransformation [9] | Bacterial Biotransformation [10] | Bacterial Biotransformation [11] | Bacterial Biotransformation [12] | Bacterial Biotransformation [13] | Bacterial Biotransformation [14] | Bacterial Biotransformation [15] | Bacterial Biotransformation [16] | Bacterial Biotransformation [17] | Bacterial Biotransformation [18] | Bacterial Biotransformation [19] | Compound
Compound NOT metabolized | Compound NOT metabolized | Compound NOT metabolized | Compound NOT metabolized | Compound NOT metabolized | Compound NOT metabolized | Compound NOT metabolized | Compound NOT metabolized | Compound NOT metabolized | Compound NOT metabolized |  | Compound NOT metabolized | Compound NOT metabolized | Compound NOT metabolized | Compound metabolized |  |  |  |  | CC#CCn1c(N2CCC[C@@H](N)C2)nc2c1c(=O)n(Cc1nc(C)c3ccccc3n1)c(=O)n2C [LINAGLIPTIN]
Compound metabolized | Compound metabolized | Compound metabolized | Compound metabolized | Compound metabolized | Compound metabolized | Compound metabolized | Compound metabolized | Compound metabolized | Compound metabolized | Compound metabolized | Compound metabolized | Compound metabolized | Compound metabolized | Compound metabolized |  |  |  |  | CCOC(=O)C1=C(C)NC(C)=C(C(=O)OC)C1c1cccc([N+](=O)[O-])c1 (centres undefined) [NITRENDIPINE]
Compound NOT metabolized | Compound metabolized | Compound metabolized | Compound NOT metabolized | Compound metabolized | Compound NOT metabolized | Compound NOT metabolized | Compound metabolized | Compound metabolized | Compound metabolized | Compound metabolized | Compound metabolized | Compound NOT metabolized | Compound NOT metabolized | Compound NOT metabolized |  |  |  |  | N#Cc1ccc2c(c1)N(CCCN1CCC(O)CC1)c1ccccc1S2 [PERICIAZINE]
Compound NOT metabolized | Compound NOT metabolized | Compound NOT metabolized | Compound metabolized | Compound NOT metabolized | Compound metabolized | Compound metabolized | Compound metabolized | Compound metabolized | Compound metabolized | Compound metabolized | Compound metabolized | Compound metabolized | Compound metabolized | Compound metabolized |  |  |  |  | O=C([O-])C[C@H](O)C[C@H](O)/C=C/c1c(C2CC2)nc2ccccc2c1-c1ccc(F)cc1.O=C([O-])C[C@H](O)C[C@H](O)/C=C/c1c(C2CC2)nc2ccccc2c1-c1ccc(F)cc1.[Ca+2] [PITAVASTATIN CALCIUM]
Compound NOT metabolized | Compound metabolized | Compound metabolized | Compound NOT metabolized | Compound NOT metabolized | Compound NOT metabolized | Compound NOT metabolized | Compound metabolized | Compound metabolized | Compound metabolized |  |  | Compound metabolized | Compound NOT metabolized | Compound NOT metabolized | Compound metabolized | Compound metabolized | Compound NOT metabolized |  | CNNCc1ccc(C(=O)NC(C)C)cc1 [PROCARBAZINE]
Compound metabolized | Compound metabolized | Compound metabolized | Compound metabolized | Compound metabolized | Compound metabolized | Compound metabolized | Compound metabolized | Compound metabolized | Compound metabolized | Compound metabolized | Compound metabolized | Compound metabolized | Compound metabolized | Compound metabolized | Compound metabolized | Compound metabolized | Compound NOT metabolized | Compound NOT metabolized | N#Cc1ccc2[nH]cc(CCCCN3CCN(c4ccc5oc(C(N)=O)cc5c4)CC3)c2c1 [VILAZODONE]

Further lines, the molecule ahead of its results:

Compound | Bacterial Biotransformation [1] | Bacterial Biotransformation [2] | Bacterial Biotransformation [3] | Bacterial Biotransformation [4] | Bacterial Biotransformation [5] | Bacterial Biotransformation [6] | Bacterial Biotransformation [7] | Bacterial Biotransformation [8] | Bacterial Biotransformation [9] | Bacterial Biotransformation [10] | Bacterial Biotransformation [11] | Bacterial Biotransformation [12] | Bacterial Biotransformation [13] | Bacterial Biotransformation [14] | Bacterial Biotransformation [15] | Bacterial Biotransformation [16] | Bacterial Biotransformation [17] | Bacterial Biotransformation [18] | Bacterial Biotransformation [19]
CN(C)CCc1c[nH]c2ccc(CS(=O)(=O)N3CCCC3)cc12 [ALMOTRIPTAN] | Compound NOT metabolized | Compound metabolized | Compound metabolized | Compound NOT metabolized | Compound NOT metabolized | Compound NOT metabolized | Compound metabolized | Compound metabolized | Compound NOT metabolized | Compound metabolized | Compound NOT metabolized | Compound NOT metabolized | Compound NOT metabolized | Compound NOT metabolized | Compound NOT metabolized |  |  |  | 
CCCCC(=O)O[C@]1(C(=O)CO)[C@@H](C)C[C@H]2[C@@H]3CCC4=CC(=O)C=C[C@]4(C)[C@@]3(F)[C@@H](O)C[C@@]21C [BETAMETHASONE VALERATE] | Compound NOT metabolized | Compound metabolized | Compound metabolized | Compound NOT metabolized | Compound NOT metabolized | Compound metabolized | Compound metabolized | Compound metabolized | Compound NOT metabolized | Compound NOT metabolized | Compound metabolized | Compound metabolized | Compound metabolized | Compound NOT metabolized | Compound metabolized |  |  |  | 
Cc1nc(Nc2ncc(C(=O)Nc3c(C)cccc3Cl)s2)cc(N2CCN(CCO)CC2)n1 [DASATINIB ANHYDROUS] | Compound NOT metabolized | Compound metabolized | Compound metabolized | Compound NOT metabolized | Compound NOT metabolized | Compound NOT metabolized | Compound metabolized | Compound metabolized | Compound metabolized | Compound metabolized | Compound metabolized | Compound metabolized | Compound NOT metabolized | Compound NOT metabolized | Compound NOT metabolized |  |  |  | 
COCCCC/C(=N\OCCN)c1ccc(C(F)(F)F)cc1.O=C(O)/C=C\C(=O)O [FLUVOXAMINE MALEATE] | Compound NOT metabolized | Compound metabolized | Compound NOT metabolized | Compound NOT metabolized | Compound NOT metabolized | Compound NOT metabolized | Compound metabolized | Compound NOT metabolized | Compound NOT metabolized | Compound NOT metabolized | Compound NOT metabolized | Compound metabolized | Compound NOT metabolized | Compound NOT metabolized | Compound NOT metabolized |  |  |  | 
CN1CCN(C2=Nc3ccccc3Oc3ccc(Cl)cc32)CC1.O=C(O)CCC(=O)O [LOXAPINE SUCCINATE] | Compound NOT metabolized | Compound NOT metabolized | Compound NOT metabolized | Compound NOT metabolized | Compound NOT metabolized | Compound NOT metabolized | Compound NOT metabolized | Compound NOT metabolized | Compound NOT metabolized | Compound NOT metabolized | Compound NOT metabolized | Compound NOT metabolized | Compound NOT metabolized | Compound NOT metabolized | Compound NOT metabolized |  |  |  | 
